{"source": "patent US6589580B1", "about": "“Method and apparatus for application of surface treatment to food products” (Kraft Foods Holdings, Inc., priority 1999, dated 2003)", "system": "mold growth on cheese chunks", "assay": "Mold growth on refrigerated cheese chunks exposed to ambient air after surface treatment", "experimental": "In one particular embodiment, the material applied comprises a suspension of natamycin in an aqueous saline solution. […] In a preferred embodiment of the invention, the process applies an average surface concentration of about 1.0 to 1.1 μg/cm^2 to ensure that an adequate concentration is applied over substantially the entire exterior surface. Application of natamycian at these average surface concentrations with the apparatus of the invention ensures that substantially all of the cheese chunk surface area has a surface concentration of at least about 0.5 μg/cm^2.\nThe efficacy of an antimycotic agent may be measured in terms of the number of days during which mold growth is retarded in treated samples, relative to untreated control samples. Generally, if mold growth is retarded by 45 days or more, the antimycotic may be considered effective. The absolute length of time during which mold growth is delayed depends on the mold load in the ambient air, in addition to effects of antimycotic agents."}
{"compound": "C[C@@H]1C/C=C/C=C/C=C/C=C/[C@H](O[C@@H]2O[C@H](C)[C@@H](O)[C@H](N)[C@@H]2O)C[C@@H]2O[C@](O)(C[C@@H](O)C[C@H]3O[C@@H]3/C=C/C(=O)O1)C[C@H](O)[C@H]2C(=O)O", "note": "[natamycin]", "values": [{"measurement": "number of days by which mold growth is retarded (relative to untreated control samples)", "setting": "preferred embodiment (average surface concentration about 1.0 to 1.1 μg/cm^2), refrigerated at 35° F. to 45° F., exposed to ambient air", "value": "over 45 days"}, {"measurement": "time cheese chunks remained mold-free", "setting": "preferred embodiment, in some cases, refrigerated at 35° F. to 45° F., exposed to ambient air", "value": "over 200 days"}, {"measurement": "surface concentration level found effective in preventing mold growth", "setting": "refrigerated cheese chunks exposed to ambient air for extended periods, natamycin suspension in aqueous saline solution applied by spray", "value": "about 0.5 μg/cm^2"}]}
